Inhibition in vivo data for 21 compounds are collected here from ChEMBL document CHEMBL1833969, “Synthesis and antigastric ulcer activity of novel 5-isoproyl-3,8-dimethylazulene derivatives” (2011).

SMILES strings stand for the structures.

Holding throughout (format): functional
Common to all, as to conditions: Stomach

Test [1] relates to Mus musculus. As to the kind of experiment: Antiulcerogenic activity in Kunming mouse assessed as inhibition of ethanol-induced gastric ulcer at 3.2 mg/kg, po qd for 5 days measured 1 hr post last dose relative to control.
For test [2], the system named is Mus musculus. As to the kind of experiment: Antiulcerogenic activity in Kunming mouse assessed as inhibition of ethanol-induced gastric ulcer at 3.9 mg/kg, po qd for 5 days measured 1 hr post last dose relative to control.
Test [3] concerns Mus musculus. As to the kind of experiment: Antiulcerogenic activity in Kunming mouse assessed as inhibition of ethanol-induced gastric ulcer at 3.7 mg/kg, po qd for 5 days measured 1 hr post last dose relative to control.
The test system of test [4] is Mus musculus. As to the kind of experiment: Antiulcerogenic activity in Kunming mouse assessed as inhibition of ethanol-induced gastric ulcer at 4.5 mg/kg, po qd for 5 days measured 1 hr post last dose relative to control.
The test system of test [5] is Mus musculus. As to the kind of experiment: Antiulcerogenic activity in Kunming mouse assessed as inhibition of ethanol-induced gastric ulcer at 4.6 mg/kg, po qd for 5 days measured 1 hr post last dose relative to control.
Test [6] concerns Mus musculus. As to the kind of experiment: Antiulcerogenic activity in Kunming mouse assessed as inhibition of ethanol-induced gastric ulcer at 4 mg/kg, po qd for 5 days measured 1 hr post last dose relative to control.
Test [7] has as its system Mus musculus. As to the kind of experiment: Antiulcerogenic activity in Kunming mouse assessed as inhibition of ethanol-induced gastric ulcer at 4.1 mg/kg, po qd for 5 days measured 1 hr post last dose relative to control.
Test [8] relates to Mus musculus. As to the kind of experiment: Antiulcerogenic activity in Kunming mouse assessed as inhibition of ethanol-induced gastric ulcer at 13.4 mg/kg, po qd for 5 days measured 1 hr post last dose relative to control.
Test [9] concerns Mus musculus. As to the kind of experiment: Antiulcerogenic activity in Kunming mouse assessed as inhibition of ethanol-induced gastric ulcer at 3 mg/kg, po qd for 5 days measured 1 hr post last dose relative to control.
Test [10] relates to Mus musculus. As to the kind of experiment: Antiulcerogenic activity in Kunming mouse assessed as inhibition of ethanol-induced gastric ulcer at 3.1 mg/kg, po qd for 5 days measured 1 hr post last dose relative to control.
The subject of test [11] is Mus musculus. As to the kind of experiment: Antiulcerogenic activity in Kunming mouse assessed as inhibition of ethanol-induced gastric ulcer at 4.7 mg/kg, po qd for 5 days measured 1 hr post last dose relative to control.
Test [12] deals with Mus musculus. As to the kind of experiment: Antiulcerogenic activity in Kunming mouse assessed as inhibition of ethanol-induced gastric ulcer at 3.6 mg/kg, po qd for 5 days measured 1 hr post last dose relative to control.
The subject of test [13] is Mus musculus. As to the kind of experiment: Antiulcerogenic activity in Kunming mouse assessed as inhibition of ethanol-induced gastric ulcer at 4.3 mg/kg, po qd for 5 days measured 1 hr post last dose relative to control.
For test [14], the system named is Mus musculus. As to the kind of experiment: Antiulcerogenic activity in Kunming mouse assessed as inhibition of ethanol-induced gastric ulcer at 3.3 mg/kg, po qd for 5 days measured 1 hr post last dose relative to control.

As for `CCCNS(=O)(=O)c1cc(C)c2cc(C(C)C)ccc(C)c1-2`, the inhibition in vivo at 3.2 mg/kg in [1] amounted to 33%.
Consider `Cc1cc(S(=O)(=O)Nc2ccc(Cl)cc2)c2c(C)ccc(C(C)C)cc1-2`, for which the inhibition in vivo at 3.9 mg/kg in [2] stood at 24.8%.
Turning to `Cc1cc(S(=O)(=O)NCc2ccccc2)c2c(C)ccc(C(C)C)cc1-2`, the inhibition in vivo at 3.7 mg/kg in [3] was 2.46%.
For `Cc1cc(S(=O)(=O)N/N=C\c2ccc(C(F)(F)F)cc2)c2c(C)ccc(C(C)C)cc1-2`, in test [4], the inhibition in vivo at 4.5 mg/kg is 24.8%.
As for `Cc1cc(S(=O)(=O)NC(C)C)c2c(C)ccc(C(C)C)cc1-2`, in [1], the inhibition in vivo at 3.2 mg/kg was found to be 18.7%.
As for `Cc1cc(S(=O)(=O)N/N=C\c2cccs2)c2c(C)ccc(C(C)C)cc1-2`, in [2], the inhibition in vivo at 3.9 mg/kg amounted to 30.7%.
For the compound `Cc1ccc(NS(=O)(=O)c2cc(C)c3cc(C(C)C)ccc(C)c2-3)cc1`, in test [3], the inhibition in vivo at 3.7 mg/kg was 23.1%.
With `Cc1cc(S(=O)(=O)Nc2ccc(/N=C/c3cccs3)cc2)c2c(C)ccc(C(C)C)cc1-2`, the inhibition in vivo at 4.6 mg/kg in test [5] was found to be 50.2%.
Regarding `Cc1cc(S(=O)(=O)N/N=C\c2ccccc2O)c2c(C)ccc(C(C)C)cc1-2`, the inhibition in vivo at 4 mg/kg in test [6] worked out at 12.2%.
Regarding `COc1ccc(/C=N\NS(=O)(=O)c2cc(C)c3cc(C(C)C)ccc(C)c2-3)cc1`, in [7], the inhibition in vivo at 4.1 mg/kg was 4.08%.
For `COc1ccc2[nH]c([S+]([O-])Cc3ncc(C)c(OC)c3C)nc2c1` (stereo unspecified) [OMEPRAZOLE], the inhibition in vivo at 13.4 mg/kg in test [8] was 36.7%.
With `Cc1cc(S(=O)(=O)O)c2c(C)ccc(C(C)C)cc1-2` [SODIUM GUALENATE], the inhibition in vivo at 3 mg/kg in test [9] was 32.6%.
On to `Cc1cc(S(=O)(=O)Nc2ccc(N)cc2)c2c(C)ccc(C(C)C)cc1-2`, for which the inhibition in vivo at 3.1 mg/kg in test [10] was 45.2%.
Take `Cc1cc(S(=O)(=O)Nc2ccc(/N=C/c3ccccc3O)cc2)c2c(C)ccc(C(C)C)cc1-2`: the inhibition in vivo at 4.7 mg/kg in [11] stood at 28.7%.
Take `CCNS(=O)(=O)c1cc(C)c2cc(C(C)C)ccc(C)c1-2`: the inhibition in vivo at 3.1 mg/kg in [10] is 24.1%.
For `Cc1cc(S(=O)(=O)Nc2cccc3ccccc23)c2c(C)ccc(C(C)C)cc1-2`, the inhibition in vivo at 4 mg/kg in test [6] is 50.5%.
Regarding `COc1ccc(NS(=O)(=O)c2cc(C)c3cc(C(C)C)ccc(C)c2-3)c(OC)c1`, the inhibition in vivo at 4.1 mg/kg in test [7] worked out at 52.8%.
Take `Cc1cc(S(=O)(=O)NC2CCCCC2)c2c(C)ccc(C(C)C)cc1-2`: the inhibition in vivo at 3.6 mg/kg in test [12] stood at 50.9%.
For `Cc1cc(S(=O)(=O)Nc2cccc(Br)c2)c2c(C)ccc(C(C)C)cc1-2`, the inhibition in vivo at 4.3 mg/kg in [13] amounted to 51.3%.
As to `Cc1cc(S(=O)(=O)NCC(C)C)c2c(C)ccc(C(C)C)cc1-2`, the inhibition in vivo at 3.3 mg/kg in [14] was found to be 33.9%.
On to `Cc1cc(S(=O)(=O)Nc2ccc(/N=C/c3ccccc3)cc2)c2c(C)ccc(C(C)C)cc1-2`, for which, in test [5], the inhibition in vivo at 4.6 mg/kg stood at 17.1%.
